In patent US10807944B2, “HDAC inhibitor compounds and methods of treatment” (priority 2014, dated 2020) one finds IC50 data, which are given here for one molecule.

The target of test [1] is HDAC5 (Homo sapiens (Human), UniProt Q9UQL6). Briefly: HDAC5 in vitro inhibition, dose response. It counts as biochemical. The settings on record: Table 1; read-out: Inhibitory Potency (IC50) HDAC 5.
Test [2] has as its target HDAC11 (Homo sapiens (Human), UniProt Q96DB2). In words: HDAC11 in vitro inhibition, dose response. It counts as biochemical. The following applies: Table 1; read-out: Inhibitory Potency (IC50) HDAC 11.

HDAC5, sequence (Q9UQL6 whole entry): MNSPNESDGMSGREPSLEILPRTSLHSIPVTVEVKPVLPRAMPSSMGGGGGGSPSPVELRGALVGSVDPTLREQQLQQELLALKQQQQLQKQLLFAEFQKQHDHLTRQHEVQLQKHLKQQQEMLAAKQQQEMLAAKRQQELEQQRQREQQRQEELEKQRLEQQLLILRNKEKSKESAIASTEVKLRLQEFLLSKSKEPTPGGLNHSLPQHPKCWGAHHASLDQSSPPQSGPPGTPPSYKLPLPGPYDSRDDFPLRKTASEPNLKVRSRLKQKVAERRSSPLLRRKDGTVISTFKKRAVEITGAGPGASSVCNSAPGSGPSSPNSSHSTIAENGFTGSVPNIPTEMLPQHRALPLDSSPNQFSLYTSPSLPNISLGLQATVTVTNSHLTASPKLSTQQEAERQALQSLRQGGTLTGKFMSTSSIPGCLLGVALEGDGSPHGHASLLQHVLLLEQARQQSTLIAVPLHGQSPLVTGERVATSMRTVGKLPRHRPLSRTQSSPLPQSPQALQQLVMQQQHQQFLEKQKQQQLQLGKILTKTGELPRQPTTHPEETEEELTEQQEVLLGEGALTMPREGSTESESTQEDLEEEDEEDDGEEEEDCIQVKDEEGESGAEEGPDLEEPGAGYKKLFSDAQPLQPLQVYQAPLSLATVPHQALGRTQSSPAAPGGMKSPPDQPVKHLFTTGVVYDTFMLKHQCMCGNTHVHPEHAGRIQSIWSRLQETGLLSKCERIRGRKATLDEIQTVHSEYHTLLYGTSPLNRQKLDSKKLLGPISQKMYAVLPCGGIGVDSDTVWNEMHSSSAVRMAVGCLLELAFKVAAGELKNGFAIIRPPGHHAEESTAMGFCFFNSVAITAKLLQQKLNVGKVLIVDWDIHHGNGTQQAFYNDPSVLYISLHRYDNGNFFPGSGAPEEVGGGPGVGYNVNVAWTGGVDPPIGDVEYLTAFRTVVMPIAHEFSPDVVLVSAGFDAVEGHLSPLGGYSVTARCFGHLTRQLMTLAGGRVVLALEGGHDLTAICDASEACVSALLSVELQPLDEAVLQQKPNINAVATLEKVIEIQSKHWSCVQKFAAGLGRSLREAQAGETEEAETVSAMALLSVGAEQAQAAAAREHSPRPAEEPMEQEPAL
HDAC11, sequence (Q96DB2 whole entry): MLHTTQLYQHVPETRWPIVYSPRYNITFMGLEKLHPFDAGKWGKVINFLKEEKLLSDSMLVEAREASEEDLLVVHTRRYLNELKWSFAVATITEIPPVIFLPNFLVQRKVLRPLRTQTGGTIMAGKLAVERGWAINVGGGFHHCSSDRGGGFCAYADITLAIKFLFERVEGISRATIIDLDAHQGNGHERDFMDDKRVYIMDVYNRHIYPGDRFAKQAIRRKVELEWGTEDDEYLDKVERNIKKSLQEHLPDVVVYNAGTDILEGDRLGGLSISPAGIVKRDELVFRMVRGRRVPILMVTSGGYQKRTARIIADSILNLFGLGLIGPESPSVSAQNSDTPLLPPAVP

`CCCCNNC(=O)c1ccc(Br)cc1` [UF010, 4-bromo-N′-butylbenzohydrazide]: the results for the IC50 in test [1] and in test [2] were over 100 µM and 44.5 µM, respectively.
